Results from the supplement of paper PMC11061612.

What was measured:
Assay in all cases: Bliss excess, mean over the matrix (fraction); higher = more synergy
[1] = test system: NCI-H1792 (Lung Adenocarcinoma)
Method in brief: (§1)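 Cell lines grown in DMEM/F12 or RPMI with 10% FBS were plated in 1536-well plates and held 24 hours at 37°C, 5% CO2 before 72 hours of exposure to two-drug dose matrices, with DMSO typically at 0.2%. CellTiter-Glo 2.0 luminescence gave viability, which was converted to inhibition. Vehicle wells were set to 0 and blank wells to 1. Combination Emax is the second-highest inhibition in the matrix, and Bliss excess is the observed combination effect minus the expected EA + EB − EA·EB, where EA and EB are the single-agent effects.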

[2] = test system: MKN28 (Gastric Carcinoma)
Method in brief: as §1

TC-71 (Ewing's Sarcoma) = test system: TC-71 (Ewing's Sarcoma)
Method in brief: as §1

[3] = test system: MFM-223 (Breast Carcinoma)
Method in brief: as §1

[4] = test system: BL-41 (Burkitt's Lymphoma)
Method in brief: as §1

WIL2-NS (Non-Cancerous) = test system: WIL2-NS (Non-Cancerous)
Method in brief: as §1

[5] = test system: KYSE-180 (Esophageal Squamous Cell Carcinoma)
Method in brief: as §1

[6] = test system: DiFi (Colorectal Carcinoma)
Method in brief: as §1

[7] = test system: TE-6 (Esophageal Squamous Cell Carcinoma)
Method in brief: as §1

[8] = test system: SW1417 (Colorectal Carcinoma)
Method in brief: as §1

U251 (Low Grade Glioma) = test system: U251 (Low Grade Glioma)
Method in brief: as §1

[9] = test system: SU-DHL-8 (B-Cell Non-Hodgkin's Lymphoma)
Method in brief: as §1

[10] = test system: EVSA-T (Breast Carcinoma)
Method in brief: as §1

[11] = test system: MS751 (Cervical Carcinoma)
Method in brief: as §1

[12] = test system: P12-ICHIKAWA (T-Lymphoblastic Leukemia)
Method in brief: as §1

ES8 (Ewing's Sarcoma) = test system: ES8 (Ewing's Sarcoma)
Method in brief: as §1

MEL-JUSO (Melanoma) = test system: MEL-JUSO (Melanoma)
Method in brief: as §1

[13] = test system: CAMA-1 (Breast Carcinoma)
Method in brief: as §1

[14] = test system: HDQ-P1 (Breast Carcinoma)
Method in brief: as §1

SMILES | Bliss excess [1] | Bliss excess [2] | Bliss excess (TC-71 (Ewing's Sarcoma)) | Bliss excess [3] | Bliss excess [4] | Bliss excess (WIL2-NS (Non-Cancerous)) | Bliss excess [5] | Bliss excess [6] | Bliss excess [7] | Bliss excess [8] | Bliss excess (U251 (Low Grade Glioma)) | Bliss excess [9] | Bliss excess [10] | Bliss excess [11] | Bliss excess [12] | Bliss excess (ES8 (Ewing's Sarcoma)) | Bliss excess (MEL-JUSO (Melanoma)) | Bliss excess [13] | Bliss excess [14]
COc1nnc2ccc(N3CCC(c4ccc(OCCN5CCN(C)C(=O)[C@H]5C)cc4)CC3)nn12 [AZD5153] + C=CCn1c(=O)c2cnc(Nc3ccc(N4CCN(C)CC4)cc3)nc2n1-c1cccc(C(C)(C)O)n1 [AZD1775] (first compound max 1 µM, partner max 1 µM) | -0.0428 | -0.0617 | 0.0354 | -0.0679 | -0.0454 | -0.105 | -0.0323 | -0.0761 | -0.0166 | -0.0254 | 0.0398 | 0.0014 | -0.0108 | 0.064 | 0.0148 | -0.0563 | 0.0131 | -0.0121 | -0.041
COc1nnc2ccc(N3CCC(c4ccc(OCCN5CCN(C)C(=O)[C@H]5C)cc4)CC3)nn12 [AZD5153] + CC1(C)CCC(CN2CCN(c3ccc(C(=O)NS(=O)(=O)c4ccc(NCC5CCOCC5)c([N+](=O)[O-])c4)c(Oc4cnc5[nH]ccc5c4)c3)CC2)=C(c2ccc(Cl)cc2)C1 [Venetoclax] (first compound max 1 µM, 7x7, partner max 1 µM) | -0.0215 | -0.0251 | -0.0443 | -0.0295 | -0.0551 | -0.0495 | -0.0193 | 0.0054 | -0.103 | -0.0485 | -0.0872 | -0.0486 | -0.0008 | -0.0752 | -0.0389 | -0.0594 | -0.0547 | -0.0564 | -0.0307
COc1nnc2ccc(N3CCC(c4ccc(OCCN5CCN(C)C(=O)[C@H]5C)cc4)CC3)nn12 [AZD5153] + CCN(CCO)CCCOc1ccc2c(Nc3cc(CC(=O)Nc4cccc(F)c4)[nH]n3)ncnc2c1 [AZD2811] (first compound max 1 µM, 7x7, partner max 1 µM) | -0.083 | -0.0244 | -0.0316 | -0.0622 | -0.0369 | -0.0421 | 0.0356 | -0.068 | -0.0501 | -0.0301 | 0.0064 | 0.107 | 0.0047 | 0.0349 | 0.0024 | -0.0119 | -0.0003 | -0.0311 | -0.008
COc1nnc2ccc(N3CCC(c4ccc(OCCN5CCN(C)C(=O)[C@H]5C)cc4)CC3)nn12 [AZD5153] + CN(CC[C@H](CSC1=CC=CC=C1)NC2=C(C=C(C=C2)S(=O)(=O)NC(=O)C3=CC=C(C=C3)N4CCC(CC4)[C@H](C5=CC=CC=C5C6=CC=C(C=C6)Cl)O)S(=O)(=O)C(F)(F)F)CCO [AZD4320] (first compound max 1 µM, 7x7, partner max 1 µM) |  |  | -0.081 | -0.0065 |  |  | 0.0551 | 0.0671 | -0.0157 |  | 0.0547 | -0.128 | 0.0426 | 0.0372 | 0.0283 |  | 0.0122 |  | 0.0844
COc1nnc2ccc(N3CCC(c4ccc(OCCN5CCN(C)C(=O)[C@H]5C)cc4)CC3)nn12 [AZD5153] + C[C@@H]1COCCN1C2=NC(=NC(=C2)C3(CC3)[S@](=N)(=O)C)C4=C5C=CNC5=NC=C4 [AZD6738] (first compound max 1 µM, 7x7, partner max 10 µM) | -0.0628 | -0.0072 | 0.0254 | -0.0011 | -0.0562 | -0.0766 | 0.0656 | 0.0524 | -0.0503 | 0.0052 | 0.0544 | 0.0042 | 0.0026 | 0.0833 | 0.055 | -0.0096 | 0.0624 | -0.0091 | 0.0527
COc1nnc2ccc(N3CCC(c4ccc(OCCN5CCN(C)C(=O)[C@H]5C)cc4)CC3)nn12 [AZD5153] + Cc1c2c(nn1C)CSCc1cc(n(C)n1)CSc1cc(c3ccccc3c1)OCCCc1c(C(=O)O)n(C)c3c-2c(Cl)ccc13 [AZD5991] (first compound max 1 µM, 7x7, partner max 1 µM) | -0.0008 | -0.0235 | 0.0285 | -0.0258 | -0.025 | -0.0255 | -0.0033 | -0.0066 | -0.0701 | -0.0252 | -0.0253 | -0.0131 | 0.003 | 0.0038 | 0.0813 | 0.0357 | -0.0507 | 0.0283 | -0.0667
COc1nnc2ccc(N3CCC(c4ccc(OCCN5CCN(C)C(=O)[C@H]5C)cc4)CC3)nn12 [AZD5153] + Cn1cnc2c(F)c(Nc3ccc(Br)cc3Cl)c(C(=O)NOCCO)cc21 [Selumetinib] (first compound max 1 µM, 7x7, partner max 10 µM) | 0.0577 | -0.0169 | 0.0049 | -0.0299 | -0.0526 | 0.0265 | 0.046 | -0.0011 | -0.0216 | 0.0496 | -0.0062 | 0.0473 | -0.031 | 0.0385 | 0.0746 | 0.0303 | 0.0889 | 0.0022 | -0.0697
